# Assay results published in article PMC6254361, “The properties of Msh2–Msh6 ATP binding mutants suggest a signal amplification mechanism in DNA mismatch repair” (The Journal of Biological Chemistry, 2018).
# Target: T1, Msh2–Msh6 (Saccharomyces cerevisiae, UniProt P25847+Q03834, Q03834:K988R)
# T1 sequence (P25847 1-964): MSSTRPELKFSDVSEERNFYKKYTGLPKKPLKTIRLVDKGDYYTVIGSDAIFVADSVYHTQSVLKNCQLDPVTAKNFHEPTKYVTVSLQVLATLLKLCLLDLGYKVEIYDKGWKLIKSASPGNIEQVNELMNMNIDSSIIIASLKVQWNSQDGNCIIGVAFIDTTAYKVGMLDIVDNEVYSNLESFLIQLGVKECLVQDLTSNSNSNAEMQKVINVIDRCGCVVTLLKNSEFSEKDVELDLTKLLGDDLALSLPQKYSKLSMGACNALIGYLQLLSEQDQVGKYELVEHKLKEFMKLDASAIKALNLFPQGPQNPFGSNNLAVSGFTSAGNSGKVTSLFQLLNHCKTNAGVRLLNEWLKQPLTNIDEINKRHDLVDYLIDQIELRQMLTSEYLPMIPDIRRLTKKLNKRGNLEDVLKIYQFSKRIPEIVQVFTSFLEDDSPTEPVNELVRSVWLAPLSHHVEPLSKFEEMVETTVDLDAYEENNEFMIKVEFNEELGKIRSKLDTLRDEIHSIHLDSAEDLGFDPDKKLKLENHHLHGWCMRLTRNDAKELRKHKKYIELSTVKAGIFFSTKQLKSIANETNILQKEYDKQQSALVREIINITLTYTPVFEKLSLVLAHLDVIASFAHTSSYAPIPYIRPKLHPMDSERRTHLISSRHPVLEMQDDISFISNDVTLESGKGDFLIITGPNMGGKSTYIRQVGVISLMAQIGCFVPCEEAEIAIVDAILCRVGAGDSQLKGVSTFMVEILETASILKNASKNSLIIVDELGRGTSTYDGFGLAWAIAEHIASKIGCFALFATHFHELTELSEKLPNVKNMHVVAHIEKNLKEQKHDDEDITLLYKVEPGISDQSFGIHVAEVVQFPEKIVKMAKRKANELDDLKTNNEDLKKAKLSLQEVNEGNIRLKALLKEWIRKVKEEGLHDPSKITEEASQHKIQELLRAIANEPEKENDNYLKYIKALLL
# T1 sequence (Q03834 1-1242 K988R): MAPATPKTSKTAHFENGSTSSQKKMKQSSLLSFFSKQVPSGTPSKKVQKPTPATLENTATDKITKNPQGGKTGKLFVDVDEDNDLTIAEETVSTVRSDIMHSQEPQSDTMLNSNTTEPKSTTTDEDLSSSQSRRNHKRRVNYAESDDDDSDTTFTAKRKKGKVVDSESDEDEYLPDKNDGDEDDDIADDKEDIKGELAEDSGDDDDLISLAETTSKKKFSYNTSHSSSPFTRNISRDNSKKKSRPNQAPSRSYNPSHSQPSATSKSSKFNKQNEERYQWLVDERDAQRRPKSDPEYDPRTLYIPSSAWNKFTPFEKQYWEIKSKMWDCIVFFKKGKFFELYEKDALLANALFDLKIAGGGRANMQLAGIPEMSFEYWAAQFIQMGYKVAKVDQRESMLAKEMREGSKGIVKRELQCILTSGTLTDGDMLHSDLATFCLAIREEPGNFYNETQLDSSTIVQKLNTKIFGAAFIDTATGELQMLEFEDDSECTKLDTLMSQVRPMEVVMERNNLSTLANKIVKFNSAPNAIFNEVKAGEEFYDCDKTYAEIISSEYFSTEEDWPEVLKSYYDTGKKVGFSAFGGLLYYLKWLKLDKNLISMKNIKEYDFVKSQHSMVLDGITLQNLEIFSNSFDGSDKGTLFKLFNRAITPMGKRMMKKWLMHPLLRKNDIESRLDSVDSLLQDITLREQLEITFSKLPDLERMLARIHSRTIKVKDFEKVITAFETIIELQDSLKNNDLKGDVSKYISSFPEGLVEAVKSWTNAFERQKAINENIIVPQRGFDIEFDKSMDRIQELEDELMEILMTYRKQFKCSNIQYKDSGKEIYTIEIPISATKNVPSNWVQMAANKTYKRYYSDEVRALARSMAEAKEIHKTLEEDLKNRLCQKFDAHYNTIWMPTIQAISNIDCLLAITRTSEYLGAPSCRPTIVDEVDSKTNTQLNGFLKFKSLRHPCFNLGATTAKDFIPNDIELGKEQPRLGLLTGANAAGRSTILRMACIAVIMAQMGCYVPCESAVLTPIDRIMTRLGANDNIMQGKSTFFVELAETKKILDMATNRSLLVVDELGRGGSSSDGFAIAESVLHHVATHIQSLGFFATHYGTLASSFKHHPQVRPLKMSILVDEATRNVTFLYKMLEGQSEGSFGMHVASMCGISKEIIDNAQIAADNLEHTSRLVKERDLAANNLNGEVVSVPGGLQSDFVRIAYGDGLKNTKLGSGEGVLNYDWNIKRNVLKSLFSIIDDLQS
# Test: UV cross-linking of [γ-32P]ATP, SDS-PAGE, phosphorimaging
# Assay type: binding
# Conditions: labelled compound; no Mg2+, EDTA, pH 8, on ice; Msh2 site at 60 μM ATP, Msh6 site at 1 μM ATP
smiles,measurement,value
Nc1ncnc2c1ncn2[C@@H]1O[C@H](COP(=O)(O)OP(=O)(O)OP(=O)(O)O)[C@@H](O)[C@H]1O [ATP],relative ATP binding,Msh2–Msh6(K988A) and Msh2–Msh6(K988R) mutant complexes had partial ATP binding defects at the Msh2 subunit
